Laboratory results taken from patent publication US20250034149A1, “DIHYDROPYRROLO[3,4C]-PYRAZOLE DERIVATIVES AND THEIR USE IN DIAGNOSIS” (AC IMMUNE SA, priority 2021, published 2025).
Counter-ions that a name gives are not always drawn.

Target: T1, PD brain-derived alpha-synuclein aggregates (Homo sapiens, UniProt P37840)
T1 construct: from tissue; host or cells: human PD donor brain tissue, sarkosyl-insoluble fraction
Assay: Micro-radiobinding competition assay for the determination of binding affinity
Conditions: for Ki: compound concentrations 0.05 nM to 2 μM, nonlinear regression, one site model
Method: The procedure was adapted from the protocol described in Spillantini et al., 1998. Frozen tissue blocks from PD donors were thawed on ice and homogenized using a glass dounce homogenizer. The homogenate was then centrifuged at 11,000×g (12,700 RPM) in an ultracentrifuge (Beckman, XL100K) for 20 minutes at 4° C. using a pre-cooled 70.1 rotor (Beckman, 342184). Pellets were resuspended in extraction buffer [10 mM Tris —HCl PH 7.4, 10% sucrose, 0.85 mM NaCl, 1% protease inhibitor (Calbiochem 539131), 1 mM EGTA, 1% phosphatase inhibitor (Sigma P5726 and P0044)] and centrifuged at 15,000×g (14,800 RPM, a 70.1 Ti rotor) for 20 minutes at 4° C. Pellets were discarded and sarkosyl (20% stock solution, Sigma L7414) was added to the supernatants to a final concentration of 1% at room temperature for one hour. This solution was then centrifuged at 100,000×g (38,000 RPM, 70.1 Ti rotor) for one hour at 4° C. Pellets containing enriched alpha-synuclein aggregates were resuspended in PBS and stored at −80° C. until use.
PD brain-derived alpha-synuclein aggregates were spotted onto microarray slides. The slides were incubated with tritiated reference alpha-synuclein ligand at 6 nM, 20 nM or 30 nM and the example compounds (non-radiolabelled) at 1 μM and 100 nM. In some cases, the non-radiolabelled example compounds were further assessed for a range of different concentrations, varying from 0.05 nM to 2 μM. After incubation, slides were washed and scanned by a real-time autoradiography system (BeaQuant, ai4R). Quantification of the signal was performed by using the Beamage image analysis software (ai4R). Non-specific signal was determined with an excess of non-radiolabelled reference alpha-synuclein ligand (2 μM) and specific binding was calculated by subtracting the non-specific signal from the total signal. Competition was calculated as percent, where 0% was defined as the specific binding in the presence of vehicle and 100% as the values obtained in the presence of excess of the non-radiolabelled reference alpha-synuclein ligand. Ki values were calculated in GraphPad Prism7 by applying a nonlinear regression curve fit using a one site, specific binding model. All measurements were performed with at least two technical replicates. For compounds tested in more than one experiment, the mean of the replicates or Ki values in independent experiments is reported.
Results: Example compounds were assessed for their potency to compete with the binding of a tritiated reference alpha-synuclein ligand to PD patient brain-derived alpha-synuclein aggregates. Results of the micro-radiobinding competition assay for the example compounds tested are shown in Table 2 as: % competition at 1 μM and 100 nM.

[1] = 100 nM non-radiolabelled example compound, competition over tritiated reference alpha-synuclein ligand (6 nM, 20 nM or 30 nM)
[2] = 1 μM non-radiolabelled example compound, competition over tritiated reference alpha-synuclein ligand (6 nM, 20 nM or 30 nM)

Row | Structure (SMILES) | inhibition at 0.1 µM [1] [%] | inhibition at 1 µM [2] [%] | Ki [nM] | Micro-radiobinding competition assay Competition at 100 nM (%) [1] [%] | Micro-radiobinding competition assay Competition at 1 μM (%) (1 μM non-radiolabelled example compound, competition over tritiated reference alpha-synuclein ligand (6 nM, 20 nM or 30 nM), hydrochloride)
1 | Cn1cc(N2Cc3cn(-c4ccc(N5CC[C@H](F)C5)nc4)nc3C2=O)cn1 [Example 4, 2-{6-[(3S)-3-fluoropyrrolidin-1-yl]pyridin-3-yl}-5-(1-methyl-1H-pyrazol-4-yl)-2H,4H,5H,6H-pyrrolo[3,4-c]pyrazol-6-one] | 28 | 75 | – | – | –
2 | O=C1c2nn(-c3ccc(N4CC[C@@H](F)C4)nc3)cc2CN1c1cncs1 [Example 12, 2-{6-[(3R)-3-fluoropyrrolidin-1-yl]pyridin-3-yl}-5-(1,3-thiazol-5-yl)-2H,4H,5H,6H-pyrrolo[3,4-c]pyrazol-6-one] | 64 | 94 | 52 | – | –
3 | O=C1c2nn(-c3ccc(N4CC[C@H](F)C4)nc3)cc2CN1c1cccnc1 [Example 2, 2-{6-[(3S)-3-fluoropyrrolidin-1-yl]pyridin-3-yl}-5-(pyridin-3-yl)-2H,4H,5H,6H-pyrrolo[3,4-c]pyrazol-6-one] | 34 | 80 | 115 | – | –
4 | Cn1cc(N2Cc3cn(-c4ccc(N5CC[C@@H](F)C5)nc4)nc3C2=O)cn1 [Example 5, 2-{6-[(3R)-3-fluoropyrrolidin-1-yl]pyridin-3-yl}-5-(1-methyl-1H-pyrazol-4-yl)-2H,4H,5H,6H-pyrrolo[3,4-c]pyrazol-6-one] | 74 | 101 | – | – | –
5 | COc1cncc(N2Cc3cn(-c4ccc(N5CC[C@H](F)C5)nc4)nc3C2=O)c1 [Example 6, 2-{6-[(3S)-3-fluoropyrrolidin-1-yl]pyridin-3-yl}-5-(5-methoxypyridin-3-yl)-2H,4H,5H,6H-pyrrolo[3,4-c]pyrazol-6-one] | 26 | 60 | – | – | –
6 | O=C1c2nn(-c3ccc(N4CC[C@@H](F)C4)nc3)nc2CN1c1cccnc1 [Example 10, 2-{6-[(3R)-3-fluoropyrrolidin-1-yl]pyridin-3-yl}-5-(pyridin-3-yl)-2H,4H,5H,6H-pyrrolo[3,4-d][1,2,3]triazol-4-one] | 74 | 97 | 30 | – | –
7 | O=C1c2nn(-c3ccc(N4CC[C@@H](F)C4)nc3)cc2CN1c1cccnc1 [Example 1, 2-{6-[(3R)-3-fluoropyrrolidin-1-yl]pyridin-3-yl}-5-(pyridin-3-yl)-2H,4H,5H,6H-pyrrolo[3,4-c]pyrazol-6-one] | 58 | 86 | 84 | – | –
8 | O=C1c2nn(-c3ccc(N4CC[C@H](F)C4)nc3)cc2CN1c1cncs1 [Example 11, 2-{6-[(3S)-3-fluoropyrrolidin-1-yl]pyridin-3-yl}-5-(1,3-thiazol-5-yl)-2H,4H,5H,6H-pyrrolo[3,4-c]pyrazol-6-one] | 41 | 90 | – | – | –
9 | COc1cncc(N2Cc3cn(-c4ccc(N5CC[C@@H](F)C5)nc4)nc3C2=O)c1 [Example 7, 2-{6-[(3R)-3-fluoropyrrolidin-1-yl]pyridin-3-yl}-5-(5-methoxypyridin-3-yl)-2H,4H,5H,6H-pyrrolo[3,4-c]pyrazol-6-one] | 10 | 52 | – | – | –
10 | Cc1ccc(N2Cc3cn(-c4ccc(N5CC[C@@H](F)C5)nc4)nc3C2=O)cn1 [Example 8, 2-{6-[(3R)-3-fluoropyrrolidin-1-yl]pyridin-3-yl}-5-(6-methylpyridin-3-yl)-2H,4H,5H,6H-pyrrolo[3,4-c]pyrazol-6-one] | 37 | 71 | 226 | – | –
11 | Cc1ccc(N2Cc3cn(-c4ccc(N5CC[C@H](F)C5)nc4)nc3C2=O)cn1 [Example 9, 2-{6-[(3S)-3-fluoropyrrolidin-1-yl]pyridin-3-yl}-5-(6-methylpyridin-3-yl)-2H,4H,5H,6H-pyrrolo[3,4-c]pyrazol-6-one] | 37 | 87 | – | – | –
12 | Cn1cc(N2Cc3cn(-c4ccc(N5CC(F)C5)nc4)nc3C2=O)cn1 [Example 3, 2-(6-(3-fluoroazetidin-1-yl)pyridin-3-yl)-5-(1-methyl-1H-pyrazol-4-yl)-4,5-dihydropyrrolo[3,4-c]pyrazol-6(2H)-one] | 38 | 89 | 54 | – | –

Next, values leading:

Row | inhibition at 0.1 µM [1] [%] | inhibition at 1 µM [2] [%] | Ki [nM] | Micro-radiobinding competition assay Competition at 100 nM (%) [1] [%] | Micro-radiobinding competition assay Competition at 1 μM (%) (1 μM non-radiolabelled example compound, competition over tritiated reference alpha-synuclein ligand (6 nM, 20 nM or 30 nM), hydrochloride) | Structure (SMILES)
13 | 31 | 63 | 214 | – | – | O=C1c2nn(-c3ccc(OCCF)nc3)cc2CN1c1cccnc1 [Example 17, 2-(6-(2-fluoroethoxy)pyridin-3-yl)-5-(pyridin-3-yl)-4,5-dihydropyrrolo[3,4-c]pyrazol-6 (2H)-one]
14 | – | – | – | 37 | 87 | Cc1ccc(N2Cc3cn(-c4ccc(N5CCC(F)C5)nc4)nc3C2=O)cn1 (stereo in doubt) [Example 13, 2-{6-[(3S)-3-fluoropyrrolidin-1-yl]pyridin-3-yl}-5-(6-methylpyridin-3-yl)-2H,4H,5H,6H-pyrrolo[3,4-c]pyrazol-6-one hydrochloride]
15 | 71 | 92 | – | – | – | Cc1ncc(N2Cc3cn(-c4ccc(N5CC[C@@H](F)C5)nc4)nc3C2=O)s1 [Example 15, (R)-2-(6-(3-fluoropyrrolidin-1-yl)pyridin-3-yl)-5-(2-methylthiazol-5-yl)-4,5-dihydropyrrolo[3,4-c]pyrazol-6(2H)-one]
16 | 69 | 90 | 40 | – | – | Cc1ncc(N2Cc3cn(-c4ccc(N5CC[C@H](F)C5)nc4)nc3C2=O)s1 [Example 16, (S)-2-(6-(3-fluoropyrrolidin-1-yl)pyridin-3-yl)-5-(2-methylthiazol-5-yl)-4,5-dihydropyrrolo[3,4-c]pyrazol-6(2H)-one]
17 | 46 | 78 | 86 | – | – | O=C1c2nn(-c3ccc(OCCF)nc3)cc2CN1c1cncs1 [Example 19, 2-(6-(2-fluoroethoxy)pyridin-3-yl)-5-(thiazol-5-yl)-4,5-dihydropyrrolo [3,4-c]pyrazol-6(2H)-one]
18 | 54 | 81 | 78 | – | – | Cn1cc(N2Cc3cn(-c4ccc(OCCF)nc4)nc3C2=O)cn1 [Example 18, 2-(6-(2-fluoroethoxy)pyridin-3-yl)-5-(1-methyl-1H-pyrazol-4-yl)-4,5-dihydropyrrolo[3,4-c]pyrazol-6(2H)-one]
19 | 55 | 86 | – | – | – | Cc1ncc(N2Cc3cn(-c4ccc(OCCF)nc4)nc3C2=O)s1 [Example 20, 2-(6-(2-fluoroethoxy)pyridin-3-yl)-5-(2-methylthiazol-5-yl)-4,5-dihydro-pyrrolo[3,4-c]pyrazol-6(2H)-one]
20 | 0 | 66 | – | – | – | Cn1cc(N2Cc3cn(-c4ccc(N5CCCC(F)CC5)nc4)nc3C2=O)cn1 (centres unmarked) [Example 14, 2-(6-(4-fluoroazepan-1-yl)pyridin-3-yl)-5-(1-methyl-1H-pyrazol-4-yl)-4,5-dihydropyrrolo[3,4-c]pyrazol-6(2H)-one hydrochloride]
